“Also recorded” adds a separate entry of the source.
What was measured:
tangle-like structures = assay: AT8 immunocytochemistry of cultured mouse hippocampal slices; assay type: cell-based; settings: ZPAD 6 days; for number of AT8 immunopositive profiles: 0.3 mm^2 box at CA1/subicular border, mean±s.e.m., n=5
Experimental: Hippocampal slices were prepared from 10 to 13 day old C57BL/6J (wild-type) and C57BL/6J-ApoE^tm1Unc (ApoE-knockout) mice obtained from the Jackson laboratory, Bar Harbor, Me. Pups were placed under light bromo-chloro-trifluoroethane anesthesia (Sigma, St. Louis, Mo.), and killed by decapitation. After removing the brains, the hippocampus was dissected and subsequently placed on a McIlwain tissue chopper where slices (400 μm thick) were obtained and placed in a solution of cutting medium consisting of Minimum Essential Medium (MEM) with Earle's salts (Gibco, Grand Island, N.Y.), 25 mM HEPES buffer, 10 mM Tris base, 10 mM glucose, and 3 mM MgCl2, pH 7.20. Hippocampal slices were then placed onto the membranes of Millicell-CM culture inserts (Millipore Corp., Bedford, Mass.) in 6 well culture cluster plates and 1 ml of media per well using the methods described by Stoppini et al., J. Neurosci. Methods 37(2):173-82 (1991). The culture medium was described previously by Bednarski et al., J. Neurosci. 17(11):4006-21 (1997). The cultures were incubated in a 37° C. atmosphere containing 5% CO2 and the culture medium was replaced every other day until the initiation of experiments. Each culture cluster plate contained hippocampal slices from either two wild-type or two apoE-knockout mice and individual wells were used for matched control and experimental treatment groups.
After maintaining the slices with normal culture medium (Bednarski et al., J. Neurosci. 17(11):4006-21 (1997)) in vitro for 12-14 days, slices were incubated with culture medium containing either 20 μM N-CBZ-L-phenylalanyl-L-alanine-diazomethyl-ketone (ZPAD; BACHEM Bioscience, Inc., Torrance, Calif.), an inhibitor of cathepsins B and L (Shaw & Dean, Biochem. J. 186:385-390 (1980); Green & Shaw, J Biol Chem. 256:1923-1928 (1981); Richardson et al., J. Cell Biol. 107: 2097-2107 (1988)) or vehicle (dimethylsulfoxide; DMSO, 0.01%-0.04%) for six days. This treatment media was exchanged every other day.
For immunocytochemical staining, control and ZPAD-treated slices from both wild-type and apoE-deficient mice were fixed in 4% paraformaldehyde in 0.1 M phosphate buffer (“PB”) at 4° C. overnight, rinsed once in a solution of phosphate buffered saline PBS (PB: phosphate buffer: 0.1M Na2HPO4 and NaH2PO4; PBS: phosphate buffered saline: NaCl 8 g, KCl 0.2 g, Na2HPO4 1.44 g, KH2PO4 0.24 g, dissolved in 1 liter distilled water, pH 7.4) cryoprotected in 20% sucrose in 0.1 M PB, sectioned on a freezing microtome at 25 μm parallel to the broad upper surface of the explant and mounted onto sterile Fisher Superfrost/Plus slides. […]

IL-10 = assay: RT-PCR/northern blot of cytokine mRNA in cultured hippocampal slices; assay type: cell-based; settings: ZPAD 20 μM, mevastatin 20 μM

N-CBZ-L-phenylalanyl-L-alanine-diazomethyl-ketone [ZPAD]
AT8-immunoreactive tangle-like structures (tangle-like structures; apoE-knockout mouse slices): present in large numbers; also recorded: significantly increased; also recorded: more than double; also recorded: Numerous, densely stained neurons; also recorded: Numerous immunopositive neurons; also recorded: numerous, densely labeled cells
number of AT8 immunopositive profiles (tangle-like structures; apoE-knockout slices): 193.8±15
AT8-immunoreactive tangle-like structures (tangle-like structures; wild-type mouse slices): occasionally found; also recorded: far fewer AT8-ir structures
number of AT8 immunopositive profiles (tangle-like structures; wild-type slices): 112.6±13
mRNA levels of IL-10 (IL-10): increases
